In patent publication US10239923B2, “Specific amyloid beta binding peptides and the use of same for treating and diagnosing alzheimer's dementia” (Forschungszentrum Juelich GmbH, priority 2015, dated 2019):
Square brackets hold non-standard residues; d marks the D form. Peptide text beside a SMILES is read from it.

Columns and labels:
PC-12 cells = experiment: MTT reduction test, Aβ1-42-induced cell toxicity; assay type: cell-based; conditions: batch containing only Mosd1, 24 hours, 37° C.
Method: The samples were placed in the culture medium of the cells and were incubated over 24 hours with the cells at 37° C. The viability of the cells was then determined on the basis of an MTT test. Here, a metabolic reactant was supplied to the cells, which reactant could be converted by metabolically active cells (living cells). Formazan crystals are the product of this conversion and can be dissolved. The coloration of the medium after solubilization corresponds to the conversion rate of the reactant and therefore the viability of the cells. Untreated cells (medium, white chequered pattern) served as living control, and the proportion of vital cells was defined as 100%. The values of the other batches were normalized to this value.

[1] = molecular target: T1, Aβ1-42 species of different size (Homo sapiens, UniProt P05067); experiment: Quantification of density gradient fractions by RP-HPLC; assay type: biochemical
Text: Certain further embodiments of the invention including a method will be presented hereinafter. What is known as the QIAD test (quantitative determination of interference with Aβ aggregate size distribution) can be used for the quantitative analysis of active substances. The method for quantitative analysis of the influence of an active substance on the particle size distribution of amyloid peptides and/or proteins in a sample has the following steps: A beta is first left to aggregate under controlled conditions, so that different A beta aggregates form. The conditions are selected so that a particularly large amount of small, particularly cytotoxic A beta oligomers are formed. […] This change is determined quantitatively. […] Due to the QIAD method, the increase or decrease of A beta aggregates of a specific particle size is measured. […] The concentration of A beta in the respective fractions is then determined by a complete denaturing of the A beta species during a reversed-phase (RP-)HPLC performed subsequently to the fractionation. […] Eluting A beta is detected by means of UV absorption at 215 nm. […] The mean value from a number of experiments carried out independently of one another (for example six) with the resultant standard deviation can be calculated for each fraction. […]
Samples of each fraction from the experiment shown in FIG. 5 were separated and quantified by means of reversed-phase HPLC. […]

Aβ1-42 [2] = molecular target: T2, Aβ1-42 (Homo sapiens, UniProt P05067); experiment: ThT test, modulation of Aβ1-42 aggregation; assay type: biochemical; conditions: 10 μM Aβ1-42, equimolar peptide, versus Aβ1-42 alone = 100%
Text: FIG. 3: The average relative fluorescence from seven independently performed ThT experiments with standard deviation is shown. The dye Thioflavin T (ThT) binds to β-pleated sheet structures in the batch and thereupon changes its fluorescence spectrum. […] The time in which the logarithmic rise of the fluorescence signal transitioned into a stationary phase was set to 100%.

Aβ1-42 [3] = molecular target: T2, Aβ1-42; experiment: TEM of Aβ1-42 incubated with and without Mosd1; assay type: biochemical; conditions: 10 μM Aβ1-42 with 10 μM Mosd1, 24 hours, room temperature
Text: The scale bars correspond to 0.25 μm.

[4] = system: Neuro-2a cells stably transfected with human APP695; experiment: Influence on APP-expressing cells; assay type: cell-based, murine; conditions: incubation with 10 μM or 100 μM Mosd1
Method: FIG. 9: The murine neuroblastoma cell line Neuro-2a serves as a model for neuronal cells and is thus suitable for analyzing the symptoms of AD. […] In this way, the influence of naturally occurring Aβ1-42 species can be examined directly in neuronal cells. In the experiment, Neuro-2a cells were cultivated without APP parallel to those with the APP transfection. […] By incubation with 10 μM or 100 μM Mosd1, however, this pathological phenotype can be reversed, and the cells develop in accordance with the physiological phenotype corresponding to wild-type Neuro-2a cells. This means that the cell number increases and the cells accumulate, have a polygonal shape and form numerous cell contact points and spurs (middle and right-hand image).

[5] = molecular target: T1, Aβ1-42 species of different size; experiment: Density gradient centrifugation, tris-tricine SDS gel and silver staining of Aβ1-42 species; assay type: biochemical
Method: The batch was then incubated either with or without addition of peptide for a further 40 minutes and was then placed on an iodixanol density gradient. The gradient was then centrifuged, wherein the contents of the sample (Aβ1-42 species of different size) diffused within the gradient in accordance with their size and shape. The gradient was fractionated after centrifugation into 15 fractions (1-15), and the first 14 individual fractions were applied to a tris-tricine SDS gel. The contents per fraction were separated electrophoretically. […] The batch was then incubated either without (A) or with addition of different concentrations of Mosd1 (B=10 μM Mossd1; C=20 μM Mosd1; D=40 μM Mosd1; E=80 μM Mosd1) for a further 40 minutes and was then placed on an iodixanol density gradient. The gradient was then centrifuged, wherein the contents of the sample (Aβ1-42 species of different size) diffused within the gradient in accordance with their size and shape. The gradient was fractionated after centrifugation (1-15), and the individual fractions were applied to a tris-tricine SDS gel. The contents per fraction were separated electrophoretically.

[6] = 80 μM Aβ1-42 pre-incubated […], 40 μM peptide for 40 minutes

T1 sequence (P05067 672-713 limits assumed): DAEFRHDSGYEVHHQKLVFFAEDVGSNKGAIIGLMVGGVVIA
T2 sequence (P05067 672-713 limits assumed): as above

concentration of high-molecular Aβ species (fractions 11-14) ([1]; 10-80 μM Mosd1, 80 μM Aβ1-42): rises
relative ThT fluorescence (formation of β-pleated sheet structures) (Aβ1-42 [2]): reduce the relative fluorescence
oligomeric Aβ1-42 species (fractions 4-7) [5, 6]: reduce
proportions of high-molecular Aβ1-42 species (fractions 10-14) [5, 6]: increase
signal strength in fractions 1-2 (monomeric Aβ) ([5]; concentrations higher than 20 μM Mosd1): reduction of the signal strength
Compound: CSCC[C@@H](NC(=O)[C@@H](Cc1c[nH]cn1)NC(=O)[C@@H](Cc1ccc(O)cc1)NC(=O)[C@@H](CO)NC(=O)[C@H](NC(=O)[C@@H](CC(C)C)NC(=O)[C@@H](Cc1ccc(O)cc1)NC(=O)[C@@H](CO)NC(=O)[C@H](N)Cc1ccc(O)cc1)[C@H](C)O)C(=O)N[C@@H](C(=O)N[C@H](Cc1c[nH]c2ccccc12)C(=O)N[C@H](CCCNC(=N)N)C(N)=O)C(C)C [Mosd1] (H-[dY][dS][dY][dL][dT][dS][dY][dH][dM][dV][dW][dR]-NH2)
viability of PC-12 cells, peptide alone (PC-12 cells): no influence
concentrations of Aβ in the fractions which contained the toxic oligomers ([1]; 10-80 μM Mosd1, 80 μM Aβ1-42, 3 independent experiments): decrease with increasing concentration of Mosd1
aggregate morphology in TEM (Aβ1-42 [3]): formation of large, high-molecular aggregates
pathological phenotype of APP-expressing cells [4]: reversed
proportion of small Aβ1-42 species and toxic oligomers ([5]; higher concentrations, 40 μM and 80 μM Mosd1, 80 μM Aβ1-42): reduce the proportion of small Aβ1-42 species and toxic oligomers considerably
proportion of toxic oligomers (fractions 4-7) ([5]; lower concentrations, 10 μM and 20 μM Mosd1, 80 μM Aβ1-42): reduce the proportion of toxic oligomers
